What was measured:
[1] = system: IFNγ-induced NO production in RAW264.7 mouse macrophages; assay: Suppression of IFNγ-induced nitric oxide production (Griess reagent); format: cell-based; conditions: Mus musculus, RAW264.7, RAW264.7 cells, 2 h pre-treatment (0-200 nM), then IFNγ 24 h; normalized to cell viability
Text: Nitric Oxide Production and Cell Viability.

[2] = system: Nrf2 transcription factor (human NQO1-ARE reporter) in HuH7 cells; assay: NQO1-ARE Luciferase Reporter Assay; format: cell-based; conditions: Huh-7, 62.5 nM, 18 h, fold over DMSO vehicle, Firefly normalized to Renilla
Text: NQO1-ARE Luciferase Reporter Assay.
This assay allows for quantitative assessment of the endogenous activity of the Nrf2 transcription factor in cultured mammalian cells. Expression of Firefly luciferase from NQO1-ARE luciferase reporter plasmid is controlled by binding of Nrf2 to a specific enhancer sequence corresponding to the antioxidant response element (ARE) that was identified in the promoter region of the human NADPH:quinone oxidoreductase 1 (NQO1) gene (Xie et al., 1995). The plasmid was constructed by inserting a sequence:
5′-[…]-3′ (SEQ ID NO:1) encompassing the human NQO1-ARE into the pLuc-MCS vector using HindIII/XhoI cloning sites (GenScript Corp., Piscataway, N.J.). The assay is performed in HuH7 cells maintained in DMEM (Invitrogen) supplemented with 10% FBS and 100 U/ml (each) of penicillin and streptomycin. For the assay, cells are plated in 96-well plates at 17,000 cells per well. Twenty four hours later, the cells are co-transfected with 50 ng each of NQO1-ARE reporter plasmid and pRL-TK plasmid using Lipofectamine 2000 transfection reagent (Invitrogen). pRL-TK plasmid constitutively expresses Renilla luciferase and is used as an internal control for normalization of transfection levels. Thirty hours after transfection, the cells are treated with compounds (at concentrations ranging from 0 to 1 μM) for eighteen hours. Firefly and Renilla luciferase activity is assayed by Dual-Glo Luciferase Assay (Promega Corp., Madison, Wis.), the luminescence signal is measured on an L-Max II luminometer (Molecular Devices). Firefly luciferase activity is normalized to the Renilla activity, and fold induction over a vehicle control (DMSO) of normalized Firefly activity is calculated. The fold induction at 62.5 nM concentration is used for comparing relative potencies of compounds to induce Nrf2 transcriptional activity. See Xie T, Belinsky M, Xu Y, Jaiswal A K. ARE- and TRE-mediated regulation of gene expression. Response to xenobiotics and antioxidants. J Biol Chem. (1995) 270(12):6894-6900, which is incorporated herein by reference.

SMILES	IC50 [1] [nM]	fold induction at 0.0625 µM [2]
Cc1cccc(-c2c3c(nn2C)[C@@]2(C)C=C(C#N)C(=O)C(C)(C)[C@@H]2CC3)c1 [TX63512]	25	1.4
CC(C)c1c2c(nn1C)[C@@]1(C)C=C(C#N)C(=O)C(C)(C)[C@@H]1CC2 [TX63547]	87	3.1
CC1(C)C(=O)C(C#N)=C[C@]2(C)c3nc(-c4cccnc4)ncc3CC[C@@H]12 [TX63586]	22	2.9
COc1cccc(-c2c3c(nn2C)[C@@]2(C)C=C(C#N)C(=O)C(C)(C)[C@@H]2CC3)c1 [TX63513]	25	2.9
Cn1nc2c(c1Cc1ccccc1)CC[C@H]1C(C)(C)C(=O)C(C#N)=C[C@]21C [TX63550]	54	1.8
Cc1ncc2c(n1)[C@@]1(C)C=C(C#N)C(=O)[C@@H](C)[C@@H]1CC2 [TX63554]	42	1.9
Cn1nc2c(c1-c1ccccc1F)CC[C@H]1C(C)(C)C(=O)C(C#N)=C[C@]21C [TX63519]	21	2.5
Cn1nc2c(c1-c1cccc(F)c1)CC[C@H]1C(C)(C)C(=O)C(C#N)=C[C@]21C [TX63506]	25	3.2
C[C@@H]1C(=O)C(C#N)=C[C@]2(C)c3nc(-c4ccccc4)ncc3CC[C@@H]12 [TX63569]	9.8	2
Cn1nc2c(c1Cl)CC[C@H]1C(C)(C)C(=O)C(C#N)=C[C@]21C [TX63604]	49	3.4
Cn1nc2c(c1-c1cccnc1)CC[C@H]1C(C)(C)C(=O)C(C#N)=C[C@]21C [TX63503]	17	5.5
Cn1nc2c(c1NC(=O)c1ccccc1)CC[C@H]1C(C)(C)C(=O)C(C#N)=C[C@]21C [TX63531]	> 200	1.1
CC1(C)C(=O)C(C#N)=C[C@]2(C)c3c(c(-c4ccccc4)nn3-c3ccccc3)CC[C@@H]12 [TX63605]	37	2.8
Cn1nc2c(c1-c1ccccc1)CC[C@H]1C(C)(C)C(=O)C(C#N)=C[C@]21C [TX63465]	18.3	4.8
Cn1nc2c(c1-c1ccccc1)CC[C@H]1CC(=O)C(C#N)=C[C@]21C [TX63540]	66.8	1.6
CC1(C)C(=O)C(C#N)=C[C@]2(C)c3nc(-c4ccccc4)ncc3CC[C@@H]12 [TX63552]	24	1.9
CC[C@@H]1C(=O)C(C#N)=C[C@]2(C)c3nn(C)c(-c4ccccc4)c3CC[C@@H]12 [TX63599]	14	3.2
Cn1cc(-c2c3c(nn2C)[C@@]2(C)C=C(C#N)C(=O)C(C)(C)[C@@H]2CC3)cn1 [TX63588]	33	5.2
CN1C(=O)C(C#N)=C[C@]2(C)c3nn(C)c(-c4ccccc4)c3CC[C@@H]12 [TX63568]	> 200	1.3
Cc1ncc2c(n1)[C@@]1(C)C=C(C#N)C(=O)C(C)(C)[C@@H]1CC2 [TX63468]	64	2

Reference: patent publication US11192852B2, “Pyrazolyl and pyrimidinyl tricyclic enones as antioxidant inflammation modulators” (REATA PHARMACEUTICALS, INC., priority 2010, dated 2021)
